Source: US20100022553A1, “Therapeutic Combination Comprising an Aurora Kinase Inhibitor and Imatinib” (NERVIANO MEDICAL SCIENCES S.R.L., priority 2008, published 2010)

What was measured:
[1] = test system: Human myeloid leukemia K-562 cell line; conditions: K562 s.c. in SCID mice, Imatinib 100 mg/kg per os, days 7-15; for Time to reach 1 g: Compound 1 15 mg/kg intraperitoneally twice a day; for T-C: delay of treated vs control tumors to reach 1 g, Compound 1 15 mg/kg i.p.
Protocol: SCID female mice, from Harlan (Italy), were maintained in cages with paper filter cover, food and bedding sterilized and water acidified.
For in vivo experiments 10^7 K562 cells were implanted subcutaneously in SCID mice.
Tumor growth and body weight were measured every 3 days. Tumor growth was assessed by caliper. […] This delay (T-C value) was defined as the difference of time (in days) required for the treatment group (T) and the control group(C) tumors to reach a predetermined size (1 g).
Toxicity was evaluated on the basis of body weight reduction.

[2] = molecular target: T315I mutation of Abl (Bcr-Abl) (Homo sapiens, UniProt P00519, T315I); conditions: cited from earlier work

SMILES: CO[C@@H](C(=O)N1Cc2[nH]nc(NC(=O)c3ccc(N4CCN(C)CC4)cc3)c2C1)c1ccccc1 [Compound 1, N-[5-(2-Methoxy-2-phenyl-acetyl)-1,4,5,6-tetrahydro-pyrrolo[3,4-c]pyrazol-3-yl]-4-(4-methyl-piperazin-1yl)-benzamide]
- Time to reach 1 g [1]: 27.3 days
- T-C [1]: 11.5 days

SMILES: Cc1ccc(NC(=O)c2ccc(CN3CCN(C)CC3)cc2)cc1Nc1nccc(-c2cccnc2)n1 [Imatinib]
- Time to reach 1 g [1]: 25.1 days
- T-C [1]: 9.3 days

SMILES: Cc1ccc(NC(=O)c2ccc(CN3CC[C@H](N(C)C)C3)c(C(F)(F)F)c2)cc1Nc1nccc(-c2cncnc2)n1 [Inno-406]
- activity against the T315I mutation [2]: inactive
